Results: patent US5525600A, “(Thiophen-2-yl)-piperidin or tetrahydropyridin carboxamides” (American Home Products Corporation, priority 1994, dated 1996)
Counter-ions that a name gives are not always drawn. Like-named read-outs stand apart in the source and are kept apart here.

Molecular target: T1, 5-HT1A serotonin receptor (Rattus norvegicus, UniProt P19327)
T1 sequence (P19327 1-422): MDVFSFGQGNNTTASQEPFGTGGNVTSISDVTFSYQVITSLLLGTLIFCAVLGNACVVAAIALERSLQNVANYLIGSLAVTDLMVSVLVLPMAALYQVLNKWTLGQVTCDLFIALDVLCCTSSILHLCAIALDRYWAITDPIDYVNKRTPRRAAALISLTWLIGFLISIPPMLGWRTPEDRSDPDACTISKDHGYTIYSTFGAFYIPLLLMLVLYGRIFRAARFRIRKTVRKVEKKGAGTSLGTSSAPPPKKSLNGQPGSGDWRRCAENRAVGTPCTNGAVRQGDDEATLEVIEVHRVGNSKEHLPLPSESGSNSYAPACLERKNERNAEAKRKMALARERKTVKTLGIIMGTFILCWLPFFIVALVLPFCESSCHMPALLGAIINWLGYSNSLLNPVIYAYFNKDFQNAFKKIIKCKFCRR
Assay: biochemical
Assay type: binding

[1] = displacement of [^3 H]8-OHDPAT, read-out: 5-HT1A Binding (IC50)

SMILES	IC50	IC50 [1]	also measured
COc1ccsc1C1(O)CCN(CCC(C(=O)N2CCCCCC2)c2ccccc2)CC1 (stereo not drawn) [Example 1, 1-Azepan-1-yl-4-[4-hydroxy-4-(3-methoxy-thiophen-2-yl)-piperidin-1-yl]-2-phenyl-butan-1-one 0.75 hydroiodide]	0.8 nM		
COc1ccsc1C1CCN(CCC(C(=O)N2CCCCCC2)c2ccccc2)CC1 (stereo not drawn) [Example 3, 1-Azepan-1-yl-4-[4-(3-methoxy-thiophen-2-yl)-piperidin-1-yl]-2-phenyl-butan-1-one fumarate salt]		0.98 nM	
COc1ccsc1C1CCN(CC[C@H](C(=O)N2CCCCCC2)c2ccccc2)CC1 [Example 5, (2S)-1-(Azepan-1-yl)-4-[4-(3-methoxy-thiophen-2-yl)-piperidin-1-yl]-2-phenyl-butan-1-one dihydrochloride salt]		0.7 nM	
COc1ccsc1C1=CCN(CC[C@H](C(=O)N2CCCCCC2)c2ccccc2)CC1 [Example 4, (S)-1-Azepan-1-yl-4-[4-(3-methoxy-thiophen-2-yl)-1.2.3.6-tetrahydro-pyridin-1-yl]-2-phenyl-butan-1-one hydrochloride salt]	0.2 nM		
O=C1CC2(CCCC2)CC(=O)N1CCCCN1CCN(c2ncccn2)CC1 [buspirone, reference compound]			affinity for the serotonin 5-HT1A receptor (in words) (displacement of [^3 H]8-OHDPAT): potent affinity
COc1ccsc1C1=CCN(CCC(C(=O)N2CCCCCC2)c2ccccc2)CC1 (stereo not drawn) [Example 2, 1-Azepan-1-yl-4-[4-(3-methoxy-thiophen-2-yl)-1,2,3,6-tetrahydro-pyridin-1-yl]-2-phenyl-butan-1-one]	0.25 nM		
